Source: US9291619B2, “Method for detecting non-transferrin bound iron” (Yissum Research Development Company of the Hebrew …, priority 2011, dated 2016)
Where a name gives a salt, the structure may show the parent alone.

How the values were obtained:
Assay type in all cases: biochemical, human
[1] = LPI (labile plasma iron) assay without NTA; conditions: for effect of added serum component on measured LPI values: added to sera from 6 thalassemic patients, citrate 0.15 mM, albumin 10 mg/ml, uric acid 0.5 mM; for serum concentration of chelator required for reducing LPI by 2 μM: 2 hr incubation with thalassemia serum at room temperature, LPI assay without NTA
Experimental: Determination of LPI and DCI. The properties of the assays used in this study in their different modalities are compiled in Table 2, below.
(§1) LPI determination, The LPI (Labile iron in plasma) assay was used as described previously or in the presence of NTA added from a concentrated solution. In experiments testing the effects of various additives on LPI, 20 μl of the additives dissolved in HBS (HEPES buffered saline composed of 20 mM HEPES, 150 mM NaCl, pH 7.4) were mixed with 20 μl of serum. Control samples and iron standards were similarly diluted with HBS. LPI assays without added NTA (‘redox-active LPI’) are designated “LPI” and LPI assays with added NTA (0.5 mM unless stated otherwise) are designated “eLPI”.
Measurements of LPI were originally designed for the detection of labile forms of iron in native human plasma or serum. The purpose was to assess if those labile forms could serve as indicators of impending tissue iron overload and as direct targets of chelation, on the basis that they should be comprised of chemical forms that are distinguishable from the non-labile Tf-bound iron in that they are redox-active, exchangeable with other ligands and accessible to chelators. This led to simple and sensitive assays that are performed under nearly physiological conditions, with 40 μM ascorbate added to initiate redox cycling of the iron and ensuing generation of reactive oxygen species (ROS) that are quantified by a fluorescence assay (Table 1). […] Thus, the assay avoids the inadvertent detection of transferrin-bound iron or labile iron-chelates. The detected LPI reflects the most labile or redox-active forms of NTBI in native plasma or serum, but not putative forms bound to non-labile ligands (e.g. citrate, albumin) In addition, the detection of LPI might be susceptible to masking by plasma antioxidants. […] For comparison, they also used a more direct assay for NTBI, in which DFO-chelatable iron is determined by its stoichiometric binding to the probe fluorescein-DFO in the presence and absence of an iron mobilizing agent.

[2] = DCI (directly chelatable iron) assay with fluorescein-DFO; conditions: for effect of added serum component on DCI values: added to thalassemia sera
Description: DCI determination. The DCI assay (directly chelatable iron) was used for sample analysis of labile iron by assessing its binding to fluorescein-DFO (Table 1) with a fluorescence plate reader or adapted for flow cytometry using as analytical probe fluorescein and DFO covalently coupled to chemically modified polystyrene beads (Spherotec Inc., Lake Forest, Ill., USA) (and an Eclipse instrument (iCyt, Champaign, Ill., USA) (Breuer et al, to be published elsewhere). In tests of the effect of NTA on DCI determination, NTA was added from a stock solution directly to the assay reagents. In experiments testing the effects of various additives on DCI, 20 μl of the additives dissolved in HBS were mixed with 20 μl of serum samples and the combined mixture (40 μl) was used in the assay. Control samples and iron standards were similarly diluted with HBS. In previous publications the term DCI has always indicated the assay format without NTA. In the present work the two formats of the
DCI assay are designated DCI (−) (without NTA) and DCI (+) (with 0.1 mM NTA).
For comparing eLPI with NTBI, the present inventors have employed an alternative assay for NTBI, termed directly-chelatable iron or DCI (FIG. 2, lower panel). Unlike LPI and eLPI which measure iron redox activity, DCI measures the accessibility of NTBI to a fluorescent, high-affinity chelator probe (fluorescein-DFO). […] This was confirmed by testing 22 TM sera for DCI without and with 0.1 mM NTA. An average increase of 0.14±0.13 μM was obtained in the presence of NTA (Breuer, W. and Cabantchik, Z. I, unpublished observations). The concentration of NTA in the DCI assay had to be limited to 0.1 mM to avoid contributions from holo-Tf-iron. Release of iron from holo-Tf by various carboxylate ligands such as NTA in combination with DFO has been documented previously. […] The present inventors tentatively attribute the exogenous albumin-mediated reduction of DCI to the binding of the fluorescein moiety of fluorescein-DFO to one of purified-albumin's hydrophobic binding sites, leading to a partial loss of sensitivity to quenching of the fluorescent chelator by iron. As the majority of such sites is normally occupied in plasma, their interference with the above assay should be minor

[3] = eLPI assay (LPI assay with added NTA); conditions: for serum concentration of chelator required for reducing eLPI by 2 μM: 2 hr incubation with thalassemia serum at room temperature, eLPI assay (0.5 mM NTA)
Experimental: as §1
As the iron-mobilizing effect of NTA on NTBI has been previously shown to be dependent on the NTA concentration, the effect of increasing NTA concentrations on LPI levels in 9 representative sera: 7 from thalassemia patients and 2 from normal individuals (FIG. 1) was assessed. […] The detected LPI signal reached maximum levels at 0.1 mM NTA in sera with LPI <1 μM and at 0.5 mM NTA in thalassemic sera with LPI >1 μM. Control sera […] remained LPI-negative at all tested concentrations of NTA, a finding corroborated in LPI tests carried out with 0.5 mM NTA on >100 sera from normal individuals (data not shown). The same values of LPI were obtained when sera were assayed with 0.5 mM NTA present in the final assay solution or when sera were preincubated with NTA for 1 hr prior to 10-fold dilution with assay solution lacking NTA. Based on the relatively fast (within minutes) and distinct extraction/mobilization of LPI components by moderate NTA treatment depicted in FIG. 1, a modality of the original LPI assay by incorporating 0.5mM NTA as extracting/mobilizing agent was adopted and referred to as enhanced LPI (eLPI).

Row | Compound | effect of added serum component on measured LPI values [1] | effect of added serum component on DCI values [2] | serum concentration of chelator required for reducing LPI by 2 μM [1] [µM] | serum concentration of chelator required for reducing eLPI by 2 μM [3] [µM] | also measured
1 | O=c1[nH]c(=O)c2[nH]c(=O)[nH]c2[nH]1 [uric acid] | significantly attenuated | Neither citrate nor uric acid significantly affected DCI values | – | – | –
2 | O=C(O)CC(O)(CC(=O)O)C(=O)O [citrate, sodium citrate] | significantly attenuated | Neither citrate nor uric acid significantly affected DCI values | – | – | –
3 | Cc1c(O)c(=O)ccn1C [DFP, 1,2-dimethyl-3-hydroxypyridin-4-one] | – | – | ~25 | ~75 | concentration in the serum required to decrease DCI by 2 μM, compared with LPI and eLPI ([2]; DCI assays without and with NTA, 2 hr incubation with thalassemia serum): markedly greater
4 | iron-saturated Tf: human apo-Tf saturated with iron (ferrous ammonium sulfate), dialyzed | – | – | – | – | effect of added serum component on eLPI values ([3]; 1 mg/ml added to 6 thalassemia sera in the presence of NTA): no significant effect
5 | CC(=O)N(O)CCCCCNC(=O)CCC(=O)N(O)CCCCCNC(=O)CCC(=O)N(O)CCCCCN [DFO, deferrioxamine] | – | – | < 10 | ~10 | competition with fluorescein-DFO in preventing the detection of DCI ([2]; DCI assays without and with NTA): competed efficiently
